# Results from patent US20230233567A1, “BELVARAFENIB FOR USE IN CANCER TREATMENT” (Hanmi Pharm. Co., Ltd., priority 2020, published 2023).
# pIC50: −log10 of the molar value. Where “and” joins values, the source holds several entries; their conditions need not be identical. Equal entries are not always repeated. Entries after “also recorded” stand apart in the source; their conditions may differ. Where two headings read alike, the source gives them in different places.
# Legend:
# [1] = system: MEK and ERK phosphorylation in A375 (BRAF^V600E) cells; experiment: Inhibition of MEK and ERK phosphorylation; assay type: cell-based; conditions: Homo sapiens
# [2] = system: MEK and ERK phosphorylation in HCT116 (KRAS^G13D) cells; experiment: Inhibition of MEK and ERK phosphorylation, KRAS mutant; assay type: cell-based; conditions: Homo sapiens, HCT-116, CRC HCT116, KRAS G13D, 2 hr treatment
# [3] = system: MEK and ERK phosphorylation in Calu-6 (KRAS^Q61K) cells; experiment: as above; assay type: cell-based; conditions: Homo sapiens, NSCLC Cau-6 (Calu-6), 2 hr treatment
# HCT116 (KRAS^G13D) = experiment: In vitro cell growth inhibition, CRC; assay type: cell-based; conditions: Homo sapiens, HCT-116
# 8505C (BRAF^V600E) = experiment: In vitro cell growth inhibition, thyroid cancer; assay type: cell-based; conditions: Homo sapiens
# [4] = system: HT-29 CRC cell line harboring BRAF^V600E mutation; experiment: In vivo antitumor activity, HT-29 xenograft; set-up: species or system mice
# Procedure: In vivo antitumor activity of belvarafenib was investigated in an experiment in a mice model xenografted with a HT-29 CRC cell line harboring BRAF^V600E mutation. Five animals per group were treated with vehicle (control) and belvarafenib at a dose of 30 mg/kg once daily via oral gavage up to day 21.
# [5] = system: locally advanced and/or metastatic solid tumors carrying mutations in the BRAF, KRAS, and/or NRAS genes; experiment: Phase I dose-escalation tumor response (RECIST v1.1); assay type: in vivo, human; set-up: key: “PR” refers to partial response; “SD” refers to stable disease; “PD” refers to progressive disease
# Procedure: Phase I dose-escalation (NCT02405065) and dose-expansion studies (NCT02405065) were conducted in patients with locally advanced and/or metastatic solid tumors carrying mutations in the BRAF, KRAS, and/or NRAS genes.
# Eligible patients had measurable or evaluable disease per the Response Evaluation Criteria in Solid Tumors version 1.1 (RECIST v1.1). See Eisenhauer E A, Therasse P, Bogaerts J, et al., “New response evaluation criteria in solid tumours: revised RECIST guideline (version 1.1)”, Eur J Cancer 45:228-47, 2009. All patients had progressed on one or more prior lines of therapy or had no available standard therapy at the time of study entry. Additional eligibility criteria included Eastern Cooperative Oncology Group (ECOG) performance status ≤2 and life expectancy ≥12 weeks. Patients with cardiovascular abnormalities as mean QTcF>440 msec were excluded from the dose-expansion phase.
# Tumor response assessments were performed radiographically by the investigator using RECIST version 1.1 at baseline, and at the end of every two treatment cycles until discontinuation. Safety evaluation (Safety Set) included all patients who received one or more doses of belvarafenib and efficacy evaluation (Full Analysis Set) included subjects who received at least one dose of belvarafenib and had at least one post-dose tumor response assessment.
# [6] = 450 mg BID (74 patients), All Grades
# [7] = 450 mg BID (74 patients), Grade ≥3
structure (smiles),measurement,setting,value
Cc1ccc2c(Nc3cccc(Cl)c3F)nccc2c1NC(=O)c1csc2c(N)ncnc12 [Belvarafenib],pIC50,"[1]; A-375, read-out: IC50 pERK",> 9.00
same,pIC50,"[1]; A-375, read-out: IC50 pMEK",7.38
same,pIC50,[2]; read-out: IC50 pERK,6.60
same,pIC50,[2]; read-out: IC50 pMEK,5.57
same,pIC50,[3]; read-out: IC50 pERK,6.23
same,pIC50,[3]; read-out: IC50 pMEK,6.44
same,GI50,HCT116 (KRAS^G13D),177 nM
same,GI50,8505C (BRAF^V600E),345 nM
same,Day for maximum inhibition,[4]; 30 mg/kg,22 and 21
same,Maximum weight loss,[4]; 30 mg/kg,2.4%
same,Maximum inhibition rate,"[4]; 30 mg/kg once daily oral, 21 days",59.8%
same,ADR leading to drug Interrupted,[6],17 (23.0) n (%)
same,ADR leading to drug reduced,[6],12 (16.2) n (%)
same,ADR leading to study drug discontinuation,[6],3 (4.1) n (%)
same,Abdominal pain,[6],10 (13.5) n (%)
same,Any ADRs,[6],62 (83.8) n (%)
same,Any TEAEs,[6],72 (97.3) n (%)
same,Constipation,[6],15 (20.3) n (%)
same,Decreased appetite,[6],15 (20.3) n (%)
same,Dermatitis acneiform,[6],34 (46.0) n (%)
same,Dyspepsia,[6],10 (13.5) n (%)
same,Fatigue,[6],12 (16.2) n (%)
same,Nausea,[6],12 (16.2) n (%)
same,Pruritus,[6],18 (24.3) n (%)
same,Pyrexia,[6],15 (20.3) n (%)
same,Rash,[6],16 (21.6) n (%)
same,TEAE leading to drug Interrupted,[6],21 (28.4) n (%)
same,TEAE leading to drug reduced,[6],15 (20.3) n (%)
same,TEAE leading to study drug discontinuation,[6],3 (4.1) n (%)
same,Vomiting,[6],9 (12.2) n (%)
same,ADR leading to drug Interrupted,[7],7 (9.5) n (%)
same,ADR leading to drug reduced,[7],3 (4.1) n (%)
same,ADR leading to study drug discontinuation,[7],3 (4.1) n (%)
same,Abdominal pain,[7],0 n (%)
same,Any ADRs,[7],16 (21.6) n (%)
same,Any TEAEs,[7],30 (40.5) n (%)
same,Constipation,[7],0 n (%)
same,Decreased appetite,[7],1 (1.4) n (%)
same,Dermatitis acneiform,[7],4 (5.4) n (%)
same,Dyspepsia,[7],0 n (%)
same,Fatigue,[7],1 (1.4) n (%)
same,Nausea,[7],1 (1.4) n (%)
same,Pruritus,[7],0 n (%)
same,Pyrexia,[7],0 n (%)
same,Rash,[7],2 (2.7) n (%)
same,TEAE leading to drug Interrupted,[7],10 (13.5) n (%)
same,TEAE leading to drug reduced,[7],5 (6.8) n (%)
same,TEAE leading to study drug discontinuation,[7],3 (4.1) n (%)
same,Vomiting,[7],2 (2.7) n (%)
same,MTD (maximum tolerated dose),"BID, oral, dose-escalation phase",650 mg
same,tolerability,RD of 450 mg BID,generally well-tolerated
same,ADR leading to drug Interrupted,"Total (n=135), All Grades",25 (18.5) n (%)
same,ADR leading to drug reduced,"Total (n=135), All Grades",21 (15.6) n (%)
same,ADR leading to study drug discontinuation,"Total (n=135), All Grades",9 (6.7) n (%)
same,Abdominal pain,"Total (n=135), All Grades",14 (10.4) n (%)
same,Any ADRs,"Total (n=135), All Grades",113 (83.7) n (%)
same,Any TEAEs,"Total (n=135), All Grades",127 (94.1) n (%)
same,Constipation,"Total (n=135), All Grades",18 (13.3) n (%)
same,Decreased appetite,"Total (n=135), All Grades",25 (18.5) n (%)
same,Dermatitis acneiform,"Total (n=135), All Grades",50 (37.0) n (%)
same,Dyspepsia,"Total (n=135), All Grades",15 (11.1) n (%)
same,Fatigue,"Total (n=135), All Grades",20 (14.8) n (%)
same,Nausea,"Total (n=135), All Grades",21 (15.6) n (%)
same,Pruritus,"Total (n=135), All Grades",30 (22.2) n (%)
same,Pyrexia,"Total (n=135), All Grades",24 (17.8) n (%)
same,Rash,"Total (n=135), All Grades",32 (23.7) n (%)
same,TEAE leading to drug Interrupted,"Total (n=135), All Grades",29 (21.5) n (%)
same,TEAE leading to drug reduced,"Total (n=135), All Grades",25 (18.5) n (%)
same,TEAE leading to study drug discontinuation,"Total (n=135), All Grades",12 (8.9) n (%)
same,Vomiting,"Total (n=135), All Grades",18 (13.3) n (%)
same,ADR leading to drug Interrupted,"Total (n=135), Grade ≥3",9 (6.7) n (%)
same,ADR leading to drug reduced,"Total (n=135), Grade ≥3",5 (3.7) n (%)
same,ADR leading to study drug discontinuation,"Total (n=135), Grade ≥3",8 (5.9) n (%)
same,Abdominal pain,"Total (n=135), Grade ≥3",0 n (%)
same,Any ADRs,"Total (n=135), Grade ≥3",26 (19.3) n (%)
same,Any TEAEs,"Total (n=135), Grade ≥3",45 (33.3) n (%)
same,Constipation,"Total (n=135), Grade ≥3",0 n (%)
same,Decreased appetite,"Total (n=135), Grade ≥3",1 (0.7) n (%)
same,Dermatitis acneiform,"Total (n=135), Grade ≥3",4 (3.0) n (%)
same,Dyspepsia,"Total (n=135), Grade ≥3",2 (1.5) n (%)
same,Fatigue,"Total (n=135), Grade ≥3",1 (0.7) n (%)
same,Nausea,"Total (n=135), Grade ≥3",1 (0.7) n (%)
same,Pruritus,"Total (n=135), Grade ≥3",0 n (%)
same,Pyrexia,"Total (n=135), Grade ≥3",0 n (%)
same,Rash,"Total (n=135), Grade ≥3",4 (3.0) n (%)
same,TEAE leading to drug Interrupted,"Total (n=135), Grade ≥3",13 (9.6) n (%)
same,TEAE leading to drug reduced,"Total (n=135), Grade ≥3",7 (5.2) n (%)
same,TEAE leading to study drug discontinuation,"Total (n=135), Grade ≥3",8 (5.9) n (%)
same,Vomiting,"Total (n=135), Grade ≥3",2 (1.5) n (%)
same,cases of squamous cell carcinoma (SCC),dose-escalation and dose-expansion (n=135),No cases of squamous cell carcinoma (SCC) were reported; also recorded: no cases of SCC were observed
same,patients who experienced DLTs,"dose-escalation, cycle 1, 50 evaluable patients",Four of the 50 patients experienced DLTs
same,Serious TEAEs related to belvarafenib,"n=135, 12 patients",8.9%
same,Serious TEAEs,"n=135, 30 patients",22.2%
same,RD (recommended dose) for single-agent belvarafenib,twice per day (BID),450 mg
same,Belvarafenib BOR,"[5]; NRAS G12C melanoma, prior Nivolumab",SD
same,Belvarafenib BOR,"[5]; NRAS G12D melanoma, prior Ipilimumab",PR
same,Belvarafenib BOR,"[5]; NRAS Q61K melanoma, prior Nivolumab",PR
same,Belvarafenib BOR,"[5]; NRAS Q61R melanoma, prior Ipilimumab",PR
same,Belvarafenib BOR,"[5]; NRAS Q61R melanoma, prior Pembrolizumab",PD
